The assay addresses Beta-secretase 1 (Homo sapiens, UniProt P56817). Put plainly: Enzyme Inhibition Measurements. Particulars: pH 4.5; 37 °C.

Consider one compound from BindingDB's records for doi:10.1016/j.bmcl.2004.10.084 (University of Illinois At Chicago, 2005).

Sequence of Beta-secretase 1 (P56817 whole entry): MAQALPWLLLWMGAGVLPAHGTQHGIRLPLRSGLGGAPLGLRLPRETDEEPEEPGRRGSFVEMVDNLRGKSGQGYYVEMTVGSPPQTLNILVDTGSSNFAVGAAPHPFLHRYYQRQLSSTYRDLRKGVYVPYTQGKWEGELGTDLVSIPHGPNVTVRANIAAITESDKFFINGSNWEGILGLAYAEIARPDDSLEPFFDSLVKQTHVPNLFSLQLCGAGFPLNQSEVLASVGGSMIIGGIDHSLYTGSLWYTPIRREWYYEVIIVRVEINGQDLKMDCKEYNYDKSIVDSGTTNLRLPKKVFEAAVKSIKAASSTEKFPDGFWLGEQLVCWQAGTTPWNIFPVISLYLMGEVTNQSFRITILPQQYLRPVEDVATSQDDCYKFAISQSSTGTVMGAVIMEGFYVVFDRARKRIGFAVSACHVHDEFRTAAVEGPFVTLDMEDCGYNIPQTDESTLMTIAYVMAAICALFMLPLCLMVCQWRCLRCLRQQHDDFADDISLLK
Protocol: Enzyme activities were assayed by monitoring the hydrolysis of substrate in the presence or absence of inhibitor compounds. The hydrolysis was recorded as the increase in fluorescence intensity over a 10 min time period. […] The Ki was calculated by using Ki = IC50/ (1 + [S]/Km), and a Km value determined according to Michaelis-Menten.

For the compound `C=CCNC(=O)C[C@H](NC(=O)[C@@H](NC(=O)OCC=C)C(C)C)C(=O)N[C@@H](CC(C)C)[C@@H](O)C[C@@H](C)C(=O)N[C@H](C(=O)NCc1ccccc1)C(C)C` [prop-2-en-1-yl N-[(1S)-1-{[(1S)-1-{[(1R,3S,4S)-1-{[(1S)-1-(benzylcarbamoyl)-2-methylpropyl]carbamoyl}-3-hydroxy-1,6-dimethylheptan-4-yl]carbamoyl}-2-(prop-2-en-1-ylcarbamoyl)ethyl]carbamoyl}-2-methylpropyl]carbamate], the affinity corresponds to a Ki of 26.6 nM.

In general, Ki refers to a dissociation constant, usually derived from enzyme kinetics or from competition with a known ligand. Lower therefore signals higher affinity.
